# Assay results from PubChem BioAssay (NCI).
#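 GI50 = concentration required for 50% inhibition of growth. TGI marks complete inhibition of growth.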
# Tests used:
# Test in all cases: growth of human tumour cells (NCI), 384-well format
# NCI-H23 lung = tested on: NCI-H23 lung
# NCI-H226 lung = tested on: NCI-H226 lung
# HCT-116 colon = tested on: HCT-116 colon
# RPMI-8226 leukemia = tested on: RPMI-8226 leukemia
# IGROV1 ovarian = tested on: IGROV1 ovarian
# HOP-92 NSCLC = tested on: HOP-92 NSCLC
# CCRF-CEM leukemia = tested on: CCRF-CEM leukemia
# OVCAR-5 ovarian = tested on: OVCAR-5 ovarian
# OVCAR-8 ovarian = tested on: OVCAR-8 ovarian
# SR leukemia = tested on: SR leukemia
# M14 melanoma = tested on: M14 melanoma
# K-562 leukemia = tested on: K-562 leukemia
# MDA-MB-231 breast = tested on: MDA-MB-231 breast
compound,measurement,setting,value
COC(=O)c1ccc([C@H]2c3[nH]c4ccccc4c3C[C@H](C(=O)OC)N2C(=O)CCl)cc1,GI50,NCI-H23 lung,< 10 nM
same,TGI,NCI-H23 lung,12 nM
same,GI50,NCI-H226 lung,75.1 nM
same,TGI,NCI-H226 lung,449 nM
same,GI50,HCT-116 colon,366 nM
same,TGI,HCT-116 colon,1450 nM
same,GI50,RPMI-8226 leukemia,14.2 nM
same,TGI,RPMI-8226 leukemia,28.4 nM
same,GI50,IGROV1 ovarian,14.2 nM
same,TGI,IGROV1 ovarian,27.5 nM
same,GI50,HOP-92 NSCLC,< 10 nM
same,TGI,HOP-92 NSCLC,< 10 nM
same,GI50,CCRF-CEM leukemia,< 10 nM
same,TGI,CCRF-CEM leukemia,15 nM
same,GI50,OVCAR-5 ovarian,289 nM
same,TGI,OVCAR-5 ovarian,1580 nM
same,GI50,OVCAR-8 ovarian,66.5 nM
same,TGI,OVCAR-8 ovarian,248 nM
same,GI50,SR leukemia,< 10 nM
same,TGI,SR leukemia,20.5 nM
same,GI50,M14 melanoma,51.2 nM
same,TGI,M14 melanoma,216 nM
same,GI50,K-562 leukemia,46.2 nM
same,TGI,K-562 leukemia,382 nM
same,GI50,MDA-MB-231 breast,14.4 nM
same,TGI,MDA-MB-231 breast,28.6 nM
